The conditions of data set [1]: cited from earlier work.
Data set [2] in a line: particle size, Horiba LA 910 particle size analyzer. The conditions noted are these: unmilled drug crystals, before incorporation into nanoparticulate formulation.

`Cc1cc2c(s1)Nc1ccccc1N=C2N1CCN(C)CC1` [Olanzapine, 2-methyl-4-(4-methyl-1-piperazinyl) -10H-thieno[2,3-b][1,5]benzodiazepine]: the solubility in water entry in data set [1] was “practically insoluble in water”. Moreover, the mean particle size in data set [2] stood at 137.08 microns.

Values taken from US7910577B2 (priority 2004, dated 2011).
